Laboratory results as given in PMC10707468, “Pharmacokinetics of Novel Dopamine Transporter Inhibitor CE-123 and Modafinil with a Focus on Central Nervous System Distribution” (International Journal of Molecular Sciences, 2023).

Legend:
CYP3A = assay: CYP P450 inhibition in HLMs (Eurofins Panlabs); assay type: in vitro ADME, human; settings: S-CE-123 10 µM
Protocol: In vitro metabolism assays for the cytochrome (CYP) P450 inhibition of S-CE-123 was outsourced to Eurofins Panlabs (St. Charles, MO, USA, study number 100050638). Briefly, 0.1 mg/mL of the HLMs was incubated for 10 min at 37 °C with substrate (10 µM phenacetin for CYP1A, 100 µM bupropion for CYP2B6, 10 µM amodiaquine for CYP2C8, 10 µM diclofenac for CYP2C9, 0.5 µM omeprazole for CYP2C19, 5 µM dextromethorphan for CYP2D6, 5 µM midazolam for CYP3A, and 50 µM testosterone for CYP3A4) in the presence/absence of S-CE-123 (10 µM). The peak areas corresponding to the metabolite of each substrate were recorded. The percent of control activity was then calculated by comparing the peak area obtained in the presence of the test compound to that obtained in the absence of the test compound. Subsequently, the percent inhibition was calculated by subtracting the percent control activity from 100 for each compound. The IC50 values (concentration causing a half-maximal inhibition of control values) were determined using non-linear regression analysis of the concentration–response curve using Hill equation curve fitting.

[1] = In vitro metabolic stability in human liver microsomes; assay type: in vitro ADME; settings: for % of the parent drug remaining / half-life at 1 µM / microsomal CLint at 1 µM: 1 µM; for % of the parent drug remaining: 60 min incubation; for half-life at 1 µM / microsomal CLint at 1 µM: human, human liver microsomes, pH 7.4; for half-life at 1 µM: 0.5 mg/mL protein, read-out: half-life (t1/2); for microsomal CLint at 1 µM: read-out: intrinsic clearance (CLint)
Protocol: An in vitro metabolism assay to study the phase I metabolism in the HLMs was in-house-developed. Optimization of the protocol included the test compound concentration (1, 5, 10 m and 50 µM) and extraction solvents (ACN and MeOH). […] The metabolic assay was initiated by the addition of 10 mM NADPH to the reaction solution and terminated after 0, 2.5, 5, 15, 30, 45, and 60 min via the addition of 200 µL of ice-cold MeOH containing the IS solution. The samples were than vortexed and spun for 15 min (14,000× g, 4 °C). The supernatant was collected, evaporated to dryness using the Concentrator plus (Eppendorf), and reconstituted with 100 µL of ACN/0.1% FA in water 10:90 (v:v). To ensure that the assay was performing adequately, the incubation of 1 µM diazepam at the same assay conditions as described was conducted, and the formation of its metabolites temazepam and nordazepam was monitored. A negative control included the absence of NADPH, the test compound, or HLMs during assay. […] The metabolic stability curves of the tested compounds were established by plotting the incubation time against the natural logarithm of the % parent drug remaining. The slope (k) of the linear part was utilized for the in vitro half-life (t1/2, min) as ln2/k. The V (µL/mg) was calculated as the volume of the reaction solution (100 µL) divided by the protein amount in the incubation (0.5 mg). The protein amount was predetermined by the supplier and the content was checked by using a Pierce™ BCA Protein Assay Kit (Thermo Fisher Scientific, Vienna, Austria) for each freshly opened tube. The intrinsic clearance (CLint, µL/min/mg) was calculated according to the following equation:(7) CLint=0.693/t1/2·V […]

[2] = Systemic pharmacokinetic parameters used in simulation exercise; assay type: in vivo, rat; settings: parameter used in simulation; for clearance / Vd: plasma; for clearance: rat 0.3 kg, read-out: Systemic clearance, CL (converted); for Vd: rat, read-out: Apparent volume of distribution, Vd
Protocol: In order to minimize the usage of animals and gain high confidence in the tissue distribution, a 4 h constant intravenous infusion study was designed based on the systemic pharmacokinetic parameters determined elsewhere. The catheters were surgically implanted a day before the PK experiment. The rats (n = 3 per compound) were then individually placed into a CMA 120 system (CMA, Solna, Sweden). […] A dose of 20 mg/kg was administered as a combination of an initial short 10 min infusion as a loading dose followed by a constant infusion up to 4 h, targeting a steady-state total plasma concentration of around 1000 ng/mL for each compound (based on the pilot study results). Blood was collected into heparinized Eppendorf tubes via a femoral artery catheter at 0 (before infusion starts) 1, 2, 3, and 4 h after the infusion started and immediately centrifuged at 10,000 rpm for 5 min at +4 °C. Plasma was then collected and kept at −20 °C. At 4 h, the rats were anesthetized via inhalation of 2.5% isoflurane (Abbot Scandinavia, Solna, Sweden), balanced with 1.5 L/min oxygen, after which the terminal blood and tissue samples were collected. […] The tissue samples (brain, spinal cord, liver, and kidney) were rapidly removed, pre-weighed into a 2 mL hard tissue homogenizing tube with mini-beads, and subsequently homogenized in 2 volumes of MQ water using a 4-Place Bead Mill Homogenizer (VWR, Stockholm, Sweden) at the maximal speed for 2 min and thereafter kept at +4 °C. The plasma and tissue homogenate samples were stored at −20 °C until LC–MS analysis.
The simulation was performed at a given initial total plasma concentration to be equal to the steady-state concentrations obtained in the neuroPK study, utilizing the parameters listed in Supplementary Table S4. A two-compartment model consisting of blood and brain compartments with a focus on the unbound concentrations was used for the simulation exercise (see details on the structure of the model in Supplementary Figure S5). The representative unbound plasma and brain profiles are presented in Supplementary Figure S6.
Table S4. Parameters used in simulation exercise.
Fraction of un bound in unitless 0.252 0.797
Rate of BBB transport parameters*
Ext ent of BBB transport and intra-brain dist ribution
Unbound brain-t o-plasma unitless 0.46 0.097 concentrati on rat io, Kp,uu,brain
Unbound volume of mL/g brain 5.21 3.73 distribution in brain, Vu,brain
Additional parameters used
Infusi on rate mg/h 0.05 1.0
* Data of blood-brain barrier per meation of 100 µM CE-123 and modafinil across an in vitro Transw ell model based on mouse cell line cerebEND were included in the simulation. Experimental procedures were published previously The permeability coefficients w ere calculated according to the clearance principle deduct ing blank inserts without cells.
**Similar apparent permeability in human BBB cell culture model and rat endot helial cells was assumed.

[3] = Equilibrium dialysis, brain tissue binding; assay type: in vitro ADME, rat; settings: for fraction unbound at 5 h, 10 µM: whole brain homogenate (1:9 in PBS), rat brain homogenate 1:9 in PBS pH 7.4, 10 µM, corrected for dilution, read-out: Fraction unbound in brain homogenate, fu,brain
Protocol: A Teflon 96-well plate (model HTD96b, HTDialysis LLC, Gales Ferry, CT, USA) was used in all tissue-binding experiments. Th evaluation of PPB was determined according to van Liempd et al. (2011) and BTB according to the previously published protocols. […] The whole brain tissue from three rats was individually homogenized in 9 volumes of phosphate-buffered saline (PBS), pH 7.4. […] Then, 100 µL of spiked plasma or brain tissue homogenate in triplicate was dialyzed against an equal volume of PBS, pH 7.4, for 5 h at 37 °C and 200 rpm. Furthermore, 50 µL was taken from both sides of the membrane at the end of incubation. The unbound fraction of the compounds in the plasma (fu,plasma) or in the diluted (D) brain homogenate (fu,hD) was calculated according to the following equation:(1) fu,plasma or fu,hD=Cbuffer/Ctissue where Cbuffer represents the concentration of the compound measured in the buffer and Ctissue is the concentration measured in the plasma or brain tissue homogenate. Due to dilution, fu,hD is usually higher than the actual fu,brain. Thus, fu,hD was corrected for the dilution factor (D), which is in this case 10 times. (2) fu,brain=fu,hD/D+fu,hD−D·fu,hD

[O-][S@@+](Cc1cncs1)C(c1ccccc1)c1ccccc1 [S-CE-123]
inhibition of control values (CYP3A): Low inhibition
fold faster metabolism compared to R-modafinil ([1]; HLMs): 9.3 fold
% of the parent drug remaining ([1]; HLMs): 35%
half-life at 1 µM ([1]; HLMs): 0.65 h
microsomal CLint at 1 µM ([1]; HLMs): 3.6 µL/min/mg
Systemic clearance unbound, Clu [2]: 0.046 L/h
clearance [2]: 3.07 mL/min
Vd [2]: 0.232 L
brain tissue binding capacity, fold higher compared to R-modafinil ([3]; rat brain homogenate): 6.6 fold
fraction unbound at 5 h, 10 µM [3]: 0.035 ± 0.012

NC(=O)C[S@@+]([O-])C(c1ccccc1)c1ccccc1 [R-modafinil, reference compound]
% of the parent drug remaining ([1]; HLMs): 90%
metabolized ([1]; HLMs, 5, 10 and 50 µM): ≤ 10%
half-life at 1 µM ([1]; HLMs): 6.07 h
microsomal CLint at 1 µM ([1]; HLMs): 0.4 µL/min/mg
Systemic clearance unbound, Clu [2]: 1.194 L/h
clearance [2]: 25 mL/min
Vd [2]: 1.02 L
fraction unbound at 5 h, 10 µM [3]: 0.23 ± 0.1
